Results reported in US20210078932A1, “3,4-DIHYDROXYPHENETHYL 3-HYDROXYBUTANOATE, PREPARATION AND USE THEREOF” (XI'AN JIAOTONG UNIVERSITY, priority 2019, published 2021).

Key:
rats with brain fatigue [1] = assay: Open field test in sleep-deprivation brain fatigue rat model; format: in vivo, SD rats; conditions: for amelioration of manic mood of the rats with brain fatigue: overall conclusion after administration; for average moving speed / number of movements: sleep-deprived rats, drug intragastrically daily, compared with brain fatigue group; for average moving speed: FIG. 2A; for number of movements: FIG. 2B
Description: (§1) 8-week-old adult male SD rats (body weight: 250 g) purchased from Experimental Animal Center of The Second Military Medical University in Shanghai were used in the experiments. The rats were kept in an animal room with controlled temperature (22° C. to 28° C.) and humidity (60%). The light of the room was maintained in a 12 h/12 h day/night light cycle. The rats were able to eat and drink freely during the experiments. A brain fatigue rat model was established by using the sleep deprivation method in the experiments. The experimental rats were divided into five groups, with 10 rats in each group.
The five groups are as follows: (1) a normal feeding group with normal saline intragastrically administered daily (hereinafter referred to as the control group); (2) a brain fatigue model group established by the sleep deprivation method, with normal saline intragastrically administered daily (hereinafter referred to as the brain fatigue group); (3) a brain fatigue model group established by the sleep deprivation method, with 35 mg/kg of hydroxytyrosol acetate intragastrically administered daily (hereinafter referred to as HTac group, as shown in the following table); (4) a brain fatigue model group established by the sleep deprivation method, with 23.6 mg/kg of […] intragastrically administered daily (hereinafter referred to as HBET group, as shown in the following table); (5) a brain fatigue model group established by the sleep deprivation method, with 42.9 mg/kg of hydroxytyrosol hydroxybutyrate intragastrically administered daily (hereinafter referred to as HTHB group, as shown in Table 1).
The rats were preconditioned in the animal room for one week, during which the drugs were intragastrically administered. From the second day of the acquisition training of the water maze experiment, the rats other than the control group were started to be subjected to the small-platform-over-water sleep deprivation to establish the brain fatigue stress model. The sleep deprivation apparatus was mainly composed of two parts: a water tank and a platform disposed in the tank. The tank was filled with water. The size of the platform can only for the hind legs of the rat to stand. The platform was fixed to the bottom of the tank, and the top surface of the platform is above the water surface. The rat was placed on the platform for sleep deprivation. Once the rat fell asleep, its muscle tension would decrease and its center of gravity would move forward, which would cause the rat to fall into the water and suddenly be awakened. In order to avoid this, the rat must keep a slight grip on the edge of the platform, which deprived the sleep of the rat and caused brain fatigue.
The open field test is a classic behavioral test to evaluate emotion of rodents, which is based on the principle that the rodents have instincts to fear an open field and have spontaneous phobotaxis activities. Abnormalities in phobotaxis can indicate emotional abnormalities of rodents. The apparatus of the open field test was mainly composed of a black PVC box and a video tracking system. The box was 80 cm in both length and width and 50 cm in height. A camera of the video tracking system was hung at a height of 1.5 meters from the bottom of the box. The rat can move freely in the open field box, and the camera facing the box recorded the movements of the rat. By using the video tracking system, the interior of the box was divided into 16 squares arranged in 4×4 matrix, in which 12 surrounding squares were defined as a surrounding area, and 4 internal squares were defined as a central area, respectively.
The open field test follows the last day of the water maze experiment. After the water maze experiment, each rat was put back into the cage and rested for 10 minutes. Then in the open field test, the rat was placed at the center of the box bottom in a quiet environment, and was video recorded by the camera for 5 minutes, after which the rat was removed from the box. […]

rats with brain fatigue [2] = assay: Morris water maze experiment (exploration test) in sleep-deprivation brain fatigue rat model; format: in vivo, SD rats
Description: as §1, with “group. […]” for “group.”

Molecule: CCOC(=O)CC(C)O (stereo not drawn) [HBET, ethyl β-hydroxybutyrate]
- amelioration of manic mood of the rats with brain fatigue (rats with brain fatigue [1]): significantly ameliorated to certain degrees
- average moving speed (rats with brain fatigue [1]): significantly different

Molecule: CC(O)CC(=O)OCCc1ccc(O)c(O)c1 (centres unmarked) [HTHB, 3,4-dihydroxyphenethyl 3-hydroxybutanoate]
- improvement of learning and memory abilities of the rats with brain fatigue (rats with brain fatigue [2]; overall conclusion, compared with hydroxytyrosol acetate and ethyl β-hydroxybutyrate): more obviously improved the learning and memory abilities
- swimming time in the quadrant IV (percentage) (rats with brain fatigue [2]; sleep-deprived rats, drug intragastrically daily, compared with brain fatigue group, FIG. 1A): significantly different
- amelioration of manic mood compared with hydroxytyrosol acetate and ethyl β-hydroxybutyrate (rats with brain fatigue [1]; overall comparison, in some indicators): better amelioration of manic mood
- amelioration of manic mood of the rats with brain fatigue (rats with brain fatigue [1]): significantly ameliorated to certain degrees
- average moving speed (rats with brain fatigue [1]): significantly different
- number of movements (rats with brain fatigue [1]): significantly different

Molecule: hydroxytyrosol acetate [HTac]
- amelioration of manic mood of the rats with brain fatigue (rats with brain fatigue [1]): significantly ameliorated to certain degrees
- average moving speed (rats with brain fatigue [1]): significantly different
- number of movements (rats with brain fatigue [1]): significantly different
